Patent US20230248834A1, “DEGRADATION OF (EGFR) BY CONJUGATION OF EGFR INHIBITORS WITH E3 LIGASE LIGAND AND METHODS OF USE” (BEIGENE, LTD., priority 2020, published 2023)

The compounds below were run against T1, EGFR L858R/T790M/C797S (Homo sapiens, UniProt P00533, C797S/L858R/T790M) (assay: EGFR degradation HTRF assay in BaF3-LTC cells). Conditions: BaF3-LTC (L858R/T790M/C797S), maximum percentage of inhibition (degradation); read-out: BaF3-LTC Dmax (%).
T1 construct: expressed in transfected cells; host or cells: BaF3-LTC
Type: cell-based
Description: BaF3-LTC(L858R/T790M/C797S) cells and BaF3 LC(L858R/C797S) cells are treated with compounds diluted in 0.2% DMSO cell culture medium and incubate for 16 h, 37° C., 5% CO2. the final concentration of compounds in all assay is start with 10 uM, 5-fold dilution, total 8 doses were included.
After 16 h treatment, add HTRF lysis buffer to each well; seal the plate and incubate 1 hour at room temperature on a plate shaker; Once the cells are lysed, 16 μL of cell lysate are transferred to a PE 384-well HTRF detection plate; 4 μL of pre-mixed HTRF antibodies are added to each well; Cover the plate with a plate sealer, spin 1000 rpm for 1 min, Incubate overnight at room temperature; Read on BMG PheraStar with HTRF protocol (337 nm-665 nm-620 nm).
The inhibition (degradation) percentage of the compound was calculated by the following equation: Inhibition percentage of Compound=100−100×(Signal−low control)/(High control−low control), wherein signal=each test compound group
High control=Cell group with added DMSO and without compound, indicating microplate readings without EGFR degradation;
Dmax is the maximum percentage of inhibition (degradation).
The IC50 (DC50) value of a compound can be obtained by fitting the following equation
Y=Bottom+(TOP−Bottom)/(1+((IC50/X)^hillslope))
Wherein, X and Y are known values, and IC50, Hillslope, Top and Bottom are the parameters obtained by fitting with software. Y is the inhibition percentage (calculated from the equation), X is the concentration of the compound; IC50 is the concentration of the compound when the 50% inhibition is reached. The smaller the IC50 value is, the stronger the inhibitory ability of the compound is. Vice versa, the higher the IC50 value is, the weaker the inhibitory ability of the compound is; Hillslope represents the slope of the fitted curve, generally around 1*; Bottom represents the minimum value of the curve obtained by data fitting, which is generally 0%±20%; Top represents the maximum value of the curve obtained by data fitting, which is generally 100%±20%. The experimental data were fitted by calculating and analyzing with Dotmatics data analysis software.

T1 sequence (P00533 25-1210 T790M/C797S/L858R): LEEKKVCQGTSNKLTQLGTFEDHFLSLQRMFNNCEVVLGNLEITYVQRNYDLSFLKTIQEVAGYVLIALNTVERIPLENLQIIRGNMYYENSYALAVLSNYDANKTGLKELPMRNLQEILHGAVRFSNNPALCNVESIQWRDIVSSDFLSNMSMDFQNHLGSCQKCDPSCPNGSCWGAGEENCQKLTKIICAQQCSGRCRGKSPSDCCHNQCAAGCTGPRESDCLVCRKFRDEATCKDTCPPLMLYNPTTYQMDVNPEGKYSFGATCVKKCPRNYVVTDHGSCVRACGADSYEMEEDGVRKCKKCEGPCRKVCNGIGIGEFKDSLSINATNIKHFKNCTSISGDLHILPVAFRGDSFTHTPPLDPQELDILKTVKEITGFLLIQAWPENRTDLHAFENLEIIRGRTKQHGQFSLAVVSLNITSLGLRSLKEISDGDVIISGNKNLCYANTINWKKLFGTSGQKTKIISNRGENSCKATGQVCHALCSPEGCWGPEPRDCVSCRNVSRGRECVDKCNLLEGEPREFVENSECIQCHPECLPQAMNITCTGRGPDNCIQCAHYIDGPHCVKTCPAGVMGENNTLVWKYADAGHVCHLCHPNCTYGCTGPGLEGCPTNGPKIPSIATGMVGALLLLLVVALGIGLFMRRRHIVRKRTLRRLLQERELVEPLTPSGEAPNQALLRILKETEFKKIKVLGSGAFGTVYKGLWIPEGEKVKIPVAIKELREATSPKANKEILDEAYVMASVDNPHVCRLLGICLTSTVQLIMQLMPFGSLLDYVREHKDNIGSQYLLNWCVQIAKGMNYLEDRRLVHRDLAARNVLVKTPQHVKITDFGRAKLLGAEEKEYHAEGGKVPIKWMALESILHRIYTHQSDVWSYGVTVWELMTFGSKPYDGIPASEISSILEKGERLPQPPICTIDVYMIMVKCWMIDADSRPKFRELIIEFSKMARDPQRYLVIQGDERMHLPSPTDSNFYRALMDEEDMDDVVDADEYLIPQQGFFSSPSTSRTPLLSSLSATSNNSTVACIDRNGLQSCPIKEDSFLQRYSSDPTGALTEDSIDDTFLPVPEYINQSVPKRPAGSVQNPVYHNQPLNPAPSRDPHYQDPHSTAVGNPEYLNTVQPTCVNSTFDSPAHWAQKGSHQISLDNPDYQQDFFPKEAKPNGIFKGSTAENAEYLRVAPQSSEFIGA

| SMILES | Dmax [%] |
| --- | --- |
| COc1cc(N2CCC(N3CCN(C(=O)[C@H]4CN(c5cc(F)c([C@H]6CCC(=O)NC6=O)c(F)c5)CC4(C)C)CC3)CC2)c(C)cc1Nc1ncc(Br)c(Nc2ccc3nc(C)c(F)cc3c2P(C)(C)=O)n1 [Example 729, (R)-3-(4-((R)-4-(4-(1-(4-((5-bromo-4-((5-(dimethylphosphoryl)-3-fluoro-2-methylquinolin-6-yl)amino)pyrimidin-2-yl)amino)-5-methoxy-2-methylphenyl)piperidin-4-yl)piperazine-1-carbonyl)-3,3-dimethylpyrrolidin-1-yl)-2,6-difluorophenyl)piperidine-2,6-dione] | 97.1 |
| CCOc1cc(N2CCC(N3CCN(CCc4cc(F)c(F)c5c4n(CC)c(=O)n5C4CCC(=O)NC4=O)CC3)CC2)c(CC)cc1Nc1ncc(Br)c(Nc2ccc3nc(CC)ccc3c2P(C)(C)=O)n1 (stereo not shown) [Example 742, 3-(4-(2-(4-(1-(4-((5-bromo-4-((5-(dimethylphosphoryl)-2-ethylquinolin-6-yl)amino)pyrimidin-2-yl)amino)-5-ethoxy-2-ethylphenyl)piperidin-4-yl)piperazin-1-yl)ethyl)-3-ethyl-6,7-difluoro-2-oxo-2,3-dihydro-1H-benzo[d]imidazol-1-yl)piperidine-2,6-dione] | 78.1 |
| CCc1ccc2c(P(C)(C)=O)c(Nc3nc(Nc4cc(CC)c(N5CCC(C6CCN(CCc7cc(F)c([C@H]8CCC(=O)NC8=O)c(F)c7)CC6)CC5)cc4OC)ncc3Br)ccc2n1 [Example 745, (R)-3-(4-(2-(1′-(4-((5-bromo-4-((5-(dimethylphosphoryl)-2-ethylquinolin-6-yl)amino)pyrimidin-2-yl)amino)-2-ethyl-5-methoxyphenyl)-[4,4′-bipiperidin]-1-yl)ethyl)-2,6-difluorophenyl)piperidine-2,6-dione] | 88.7 |

The next lines start with the values.

| Dmax [%] | SMILES |
| --- | --- |
| 91.7 | [2H]C1([2H])CC([2H])(c2c(F)cc(CCN3CCN(C4CCN(c5cc(OCC)c(Nc6ncc(Br)c(Nc7ccc8nc(C)ccc8c7P(C)(C)=O)n6)cc5CC)CC4)CC3)cc2F)C(=O)NC1=O (stereo not shown) [Example 570, 3-(4-(2-(4-(1-(4-((5-bromo-4-((5-(dimethylphosphoryl)-2-methylquinolin-6-yl)amino)pyrimidin-2-yl)amino)-5-ethoxy-2-ethylphenyl)piperidin-4-yl)piperazin-1-yl)ethyl)-2,6-difluorophenyl)piperidine-2,6-dione-3,5,5-d3] |
| 95.6 | CCOc1cc(N2CCC(N3CCN(CC4CN(c5cc(F)c([C@H]6CCC(=O)NC6=O)c(F)c5)C4)CC3)CC2)c(CC)cc1Nc1ncc(Br)c(Nc2ccc3nc(CC)ccc3c2P(C)(C)=O)n1 [Example 541, (R)-3-(4-(3-((4-(1-(4-((5-bromo-4-((5-(dimethylphosphoryl)-2-ethylquinolin-6-yl)amino)pyrimidin-2-yl)amino)-5-ethoxy-2-ethylphenyl)piperidin-4-yl)piperazin-1-yl)methyl)azetidin-1-yl)-2,6-difluorophenyl)piperidine-2,6-dione] |
| 35.9 | CCOc1cc(N2CCC(N3CCN(CCc4cc(F)c([C@H]5CCC(=O)NC5=O)c(F)c4)CC3)CC2)c(CC)cc1Nc1nccc(Nc2ccc3nc(CC)ncc3c2P(C)(C)=O)n1 [Example 749, (R)-3-(4-(2-(4-(1-(4-((4-((5-(dimethylphosphoryl)-2-ethylquinazolin-6-yl)amino)pyrimidin-2-yl)amino)-5-ethoxy-2-ethylphenyl)piperidin-4-yl)piperazin-1-yl)ethyl)-2,6-difluorophenyl)piperidine-2,6-dione] |
| 95.7 | CCc1cc(Nc2ncc(Br)c(Nc3ccc4nc(C)ncc4c3P(C)(C)=O)n2)c(OC)cc1N1CCC(N2CCN(CCc3cc(F)c([C@H]4CCC(=O)NC4=O)c(F)c3)CC2)CC1 [Example 739, (R)-3-(4-(2-(4-(1-(4-((5-bromo-4-((5-(dimethylphosphoryl)-2-methylquinazolin-6-yl)amino)pyrimidin-2-yl)amino)-2-ethyl-5-methoxyphenyl)piperidin-4-yl)piperazin-1-yl)ethyl)-2,6-difluorophenyl)piperidine-2,6-dione] |
